Laboratory results: patent publication US7964636B2, “Synthesis and use of novel inhibitors and inactivators of protein arginine deiminases” (University of South Carolina, priority 2005, dated 2011)
Read-outs that look alike come from different tables or passages of the source.

Legend:
[1] = molecular target: T1, PAD4 (Homo sapiens, UniProt Q9UM07); details: cited from earlier work
[2] = molecular target: T1, PAD4; test: IC50 assays (Example 2); format: biochemical; details: for IC50: 10 mM BAEE; for inhibition at the highest concentration tested: 500 μM
Method: BAEE was then added to a final concentration of 10 mM to initiate the reaction. Reactions were then quenched after a further 15 min by flash freezing. The amount of Cit produced in the reaction was quantified using our assay for Cit production.

[3] = molecular target: T1, PAD4; test: Time course assays / inactivation kinetics (Example 2); format: biochemical; details: 2 mM BAEE
[4] = molecular target: T1, PAD4; test: Time course inhibition assays (Example 1); details: 10 mM BAEE, 10 mM CaCl2
Method: Time course experiments were performed in assay buffers containing 10 mM BAEE, 100 mM HEPES (pH 7.6), 50 mM NaCl, 500 μM TCEP and 10 mM CaCl2 in the presence of various amounts of inhibitors. The assay buffers were pre-incubated at 37° C. for 10 minutes. […] At different time points, 60 μl of the reactions was withdrawn and quenched by flash freezing in liquid nitrogen. Color development and absorbance measurement at 540 nm of the samples were done as described in IC50 assays. […] [P]=vi[1−exp(−kobst)]/kobs (Eq. 2) where vi is the initial velocity, kobs is the pseudo-first-order rate constant, and [P] refers to the concentration of citrulline produced during the reaction process.

[5] = molecular target: T1, PAD4; test: H3-amidine inhibition assays; format: biochemical; details: BAEE substrate; 0, 5, 10 mM H3-amidine; read-out: Kis (linear competitive inhibition)
Method: Initial rates were determined in the absence and presence of various amounts of H3-amidine (0, 5, 10 mM), using BAEE as the substrate. […] After incubation at 37° C. for 15 min, the reactions were quenched and the amount of Cit produced quantified. The initial rates derived from these experiments were fit by non-linear least fit squares to equations representing linear competitive inhibition (Equation 4) and linear noncompetitive inhibition (Equation 5), using the using the GraFit™ version 5.0.11 software package. v=Vm[S]/(Km(1+[I]/Kis)+[S]) (Eq. 4) v=Vm[S]I(Km(1+[I]/Kis)+[S](1+[I]/Kii)) (Eq. 5)
Kii represents Ki intercept and Kis represents Ki slope. Comparisons of the standard errors derived from fits of the data to Equations 4 and 5 are most consistent with H3-amidine being a competitive inhibitor.

[6] = molecular target: T1, PAD4; test: Inhibition assays with compound 1 (mode of inhibition, BAEE substrate); format: biochemical; details: 0, 5, 10 mM compound 1, read-out: Kis (linear competitive inhibition)
[7] = molecular target: T1, PAD4; test: IC50 assays of compounds 1, 2 and 3 (Example 1); details: pre-incubation with PAD4 and Ca2+ (10 mM) for 10 min; BAEE 1 mM final; 20 min
Method: PAD4 used in this work was GST-cleaved full-length PAD4 that was purified. A recombinant human PAD4 Escherichia coli expression system that was obtained from the Yamada group was transformed into E. coli Rosetta cells (EMD Biosciences) for the expression of fall-length PAD4 with an 8-residue N-terminal linker that is fused in frame to a PreScission protease cleavable GST tag.
The aforementioned reaction mixtures were pre-incubated with PAD4 (0.5 μM) at 37° C. for 10 minutes prior to the addition of BAEE (1 mM final concentration) to initiate the reaction. After 20 minutes the reactions were quenched by flash freezing in liquid nitrogen. […] The absorbance at 540 μm was then measured and compared to a Cit standard curve to determine the concentration of Cit produced during the course of the reactions.

[8] = test system: PAD4; details: known PAD inhibitor; cited from earlier work
[9] = preincubation with PAD4 in 10 mM calcium for 15 min, read-out: IC50

T1 sequence (Q9UM07 whole entry): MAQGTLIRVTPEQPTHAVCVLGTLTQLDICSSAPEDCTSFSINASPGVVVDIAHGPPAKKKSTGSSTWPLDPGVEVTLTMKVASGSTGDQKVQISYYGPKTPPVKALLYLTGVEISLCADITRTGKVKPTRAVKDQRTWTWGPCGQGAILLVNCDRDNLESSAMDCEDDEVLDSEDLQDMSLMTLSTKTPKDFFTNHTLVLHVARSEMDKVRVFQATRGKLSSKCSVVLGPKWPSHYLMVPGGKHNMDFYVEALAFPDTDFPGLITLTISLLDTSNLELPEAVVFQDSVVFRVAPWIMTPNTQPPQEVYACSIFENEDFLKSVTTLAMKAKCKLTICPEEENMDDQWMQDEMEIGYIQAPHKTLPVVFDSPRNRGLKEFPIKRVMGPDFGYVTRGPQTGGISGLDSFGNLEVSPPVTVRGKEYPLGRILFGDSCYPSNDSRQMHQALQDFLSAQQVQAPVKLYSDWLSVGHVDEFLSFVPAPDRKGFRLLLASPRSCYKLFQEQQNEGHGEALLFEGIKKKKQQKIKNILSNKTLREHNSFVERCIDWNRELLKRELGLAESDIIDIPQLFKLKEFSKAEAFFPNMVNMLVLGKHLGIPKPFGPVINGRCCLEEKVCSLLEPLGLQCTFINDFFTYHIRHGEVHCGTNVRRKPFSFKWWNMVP

Row | SMILES | IC50 [2, 9] [µM] | time course of product formation [3] | also measured
1 | N=C(N)CCl [2-chloroacetamidine] |  |  | Ki [1]: 20000 µM; kinact/KI ([1]; reported by the Fast group): 0.583 M⁻¹ s⁻¹
2 | N=C(CCl)NCC[C@H](NC(=O)c1ccccc1)C(N)=O [Cl2-amidine, N-α-benzoyl-N^4-(2-chloro-1-iminoethyl)-L-Dab amide] | 585 ± 65 |  | 
3 | NC(=O)[C@H](CCCNC(=O)CCl)NC(=O)c1ccccc1 [Cl3-acetamide, N-α-benzoyl-N^5-(2-chloroacetyl)-L-Orn amide] | > 500 |  | inhibition at the highest concentration tested [2]: no inhibition
4 | N=C(CCl)NCCCC[C@H](NC(=O)c1ccccc1)C(N)=O [Cl4-amidine, N-α-benzoyl-N^6-(2-chloro-1-iminoethyl)-L-Lys amide] | 640 ± 10 |  | 
5 | N=C(CF)NCC[C@H](NC(=O)c1ccccc1)C(N)=O [F2-amidine, N-α-benzoyl-N^4-(2-fluoro-1-iminoethyl)-L-Dab amide] | > 1000 | linear with respect to time | observed activity ([2]; at 1000 μM): 93 % of control
6 | NC(=O)[C@H](CCCNC(=O)CF)NC(=O)c1ccccc1 [F3-acetamide, N-α-benzoyl-N^5-(2-fluoroacetyl)-L-Orn amide] |  |  | inhibition at the highest concentration tested [2]: no inhibition; IC50 ([2]; IC50, preincubation with PAD4 in 10 mM calcium for 15 min): > 500 µM
7 | N=C(CF)NCCC[C@H](NC(=O)c1ccccc1)C(N)=O [F3-amidine, N-α-benzoyl-N^5-(2-fluoro-1-iminoethyl)-L-ornithine amide] |  |  | time dependence of inhibition (progress curves) [4]: time dependent inhibition properties
8 | N=C(CF)NCCCC[C@H](NC(=O)c1ccccc1)C(N)=O [F4-amidine, N-α-benzoyl-N^6-(2-fluoro-1-iminoethyl)-L-Lys amide] | 655 ± 100 |  | 
9 | CC(=N)NCC[C@H](NC(=O)c1ccccc1)C(N)=O [H2-amidine, N-α-benzoyl-N^4-(1-iminoethyl)-L-Dab amide] | > 1000 | linear with respect to time | 
10 | CC(=N)NCCC[C@H](NC(=O)c1ccccc1)C(N)=O [H3-amidine, N-α-benzoyl-N^5-(1-iminoethyl)-L-Orn amide] | > 1000 | linear with respect to time | Ki [5]: 3200 ± 900 µM
11 | CC(=N)NCCCC[C@H](NC(=O)c1ccccc1)C(N)=O [H4-amidine, N-α-benzoyl-N^6-(1-iminoethyl)-L-Lys amide] | > 1000 | linear with respect to time | 
12 | CC(=N)NCCC[C@H](NC(=O)c1ccccc1)C(=O)O [H-Amidine, N-α-benzoyl-N^5-(1-iminoethyl)-L-ornithine] |  |  | Ki [6]: 1700 ± 200 µM; time dependence of inhibition (progress curves) [4]: does not display time dependent inhibitory properties; IC50 [7]: 4300 ± 700 µM
13 | CC(=O)O[C@H]1C(=O)[C@@]2(C)[C@H]([C@H](OC(=O)c3ccccc3)[C@]3(O)C[C@H](OC(=O)[C@H](O)[C@@H](NC(=O)c4ccccc4)c4ccccc4)C(C)=C1C3(C)C)[C@]1(OC(C)=O)CO[C@@H]1C[C@@H]2O [taxol] |  |  | IC50 [8]: ~5000 µM
